How the values were obtained:
[1] = log P by HPLC on reversed-phase column (C 18), EEC Directive 79/831 Annex V.A8; assay type: physicochemical; details: 55° C.; for LOGP_HCOOH: log P (HCOOH)
Procedure: Temperature: 55° C. […] Called log P (HCOOH) in the table. […] Called log P (neutral) in the table.

Ctenocephalides felis [2] = assay: Ctenocephalides felis in vitro contact test with adult cat fleas; assay type: in vivo; details: application rate 5 μg/cm^2 (500 g/ha), after 48 h
Procedure: Ctenocephalides felis—In Vitro Contact Tests with Adult Cat Fleas
For the coating of the test tubes, 9 mg of active ingredient are first dissolved in 1 ml of acetone p.a. and then diluted to the desired concentration with acetone p.a. 250 μl of the solution are distributed homogeneously on the inner walls and the base of a 25 ml glass tube by turning and rocking on an orbital shaker (rocking rotation at 30 rpm for 2 h). With 900 ppm of active ingredient solution and internal surface area 44.7 cm^2, given homogeneous distribution, an area-based dose of 5 μg/cm^2 is achieved.
After the solvent has evaporated off, the tubes are populated with 5-10 adult cat fleas (Ctenocephalides felis), sealed with a perforated plastic lid and incubated in a horizontal position at room temperature and ambient humidity. After 48 h, efficacy is determined. To this end, the tubes are stood upright and the fleas are knocked to the base of the tube. Fleas which remain motionless at the base or move in an uncoordinated manner are considered to be dead or moribund.
100% efficacy means that all the fleas were dead or moribund. 0% efficacy means that no fleas were harmed.

Ctenocephalides felis [3] = assay: Ctenocephalides felis oral test; assay type: in vivo; details: application rate 100 ppm in citrated cattle blood, after 2 days, adult cat fleas
Method in brief: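 Kill (%) was recorded at 2 days. Compound, dissolved in DMSO and diluted into citrated cattle blood, was offered to roughly 20 unfed adult C. felis through parafilm.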

Lucilia cuprina = Lucilia cuprina test; assay type: in vivo; details: application rate 100 ppm, after 2 days, L1 larvae
Method in brief: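 Percent mortality read at day 2, where 100% means all larvae dead. Roughly 20 L1 larvae were exposed on minced horsemeat treated with a DMSO/water formulation at the desired concentration.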

Musca domestica = Musca domestica test; assay type: in vivo; details: after 2 days, adult houseflies
Procedure: Musca domestica Test Solvent: dimethyl sulphoxide To produce a suitable active ingredient formulation, 10 mg of active ingredient are mixed with 0.5 ml of dimethyl sulphoxide, and the concentrate is diluted with water to the desired concentration. Vessels containing a sponge treated with sugar solution and the active ingredient formulation of the desired concentration are populated with 10 adult houseflies (Musca domestica). After 2 days, the kill in % is determined. 100% means that all of the flies have been killed; 0% means that none of the flies have been killed.

Phaedon cochleariae = Phaedon cochleariae spray test; assay type: in vivo; details: after 7 days, Chinese cabbage leaf discs
Method in brief: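 Larval kill read at day 7 as percent, where 100% means every larva dead and 0% none; larvae were placed on dried Brassica pekinensis leaf discs previously sprayed with the formulation (acetone/dimethylformamide solvent, alkylaryl polyglycol ether emulsifier, water).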

Spodoptera frugiperda = Spodoptera frugiperda spray test; assay type: in vivo; details: after 7 days, maize leaf discs
Method in brief: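 Efficacy in % was scored at 7 days against armyworm caterpillars placed on dried, compound-sprayed Zea mays leaf discs. Compound was dissolved in acetone/dimethylformamide and diluted in water with 1000 ppm alkylaryl polyglycol ether. 100% means all caterpillars were killed.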

Meloidogyne incognita = Meloidogyne incognita test; assay type: in vivo; details: application rate 20 ppm, after 14 days, lettuce
Procedure: Meloidogyne incognita Test Solvent: 125.0 parts by weight of acetone To produce a suitable active ingredient formulation, 1 part by weight of active ingredient is mixed with the stated amount of solvent and the concentrate is diluted with water to the desired concentration. Vessels are filled with sand, active ingredient solution, an egg/larvae suspension of the southern root-knot nematode (Meloidogyne incognita) and lettuce seeds. The lettuce seeds germinate and the plants develop. The galls develop on the roots. After 14 days, the nematicidal efficacy in % is determined by the formation of galls. 100% means that no galls were found; 0% means that the number of galls on the treated plants corresponds to the untreated control.

Tetranychus urticae = Tetranychus urticae spray test, OP-resistant; assay type: in vivo; details: application rate 500 g/ha, after 6 days, bean leaf discs
Procedure: Tetranychus urticae—Spray Test, OP-Resistant
Solvent: 78.0 parts by weight of acetone • • 1.5 parts by weight of dimethylformamide
Emulsifier: alkylaryl polyglycol ether
To produce a suitable active ingredient formulation, 1 part by weight of active ingredient is dissolved with the specified parts by weight of solvent and made up with water containing an emulsifier concentration of 1000 ppm until the desired concentration is attained. To produce further test concentrations, the formulation is diluted with emulsifier-containing water.
Discs of bean leaves (Phaseolus vulgaris) infested with all stages of the greenhouse red spider mite (Tetranychus urticae) are sprayed with an active ingredient formulation of the desired concentration.
After 6 days, the efficacy in % is determined. 100% means that all the spider mites have been killed; 0% means that no spider mites have been killed.

[4] = acidic range pH 2.7, 0.1% aqueous formic acid and acetonitrile, reversed-phase column (C 18)
[5] = log P, neutral range, HPLC on reversed-phase column (C 18)
[6] = acidic range at pH 2.7, 0.1% aqueous formic acid and acetonitrile, HPLC on reversed-phase column (C 18)

LOGP_HCOOH [1, 4]	LOGP_NEUTRAL [1, 5]	LOGP_HCOOH [1, 6]	LOGP_NEUTRAL ([1]; log P (neutral), HPLC reversed-phase column (C 18))	Compound	efficacy (fleas dead or moribund) (Ctenocephalides felis [2])	efficacy (kill in %) (Ctenocephalides felis [3])	efficacy (kill in %) (Lucilia cuprina)	efficacy (kill in %) (Musca domestica; application rate 100 ppm)	efficacy (beetle larvae killed) (Phaedon cochleariae; application rate 100 g/ha)	efficacy (beetle larvae killed) (Phaedon cochleariae; application rate 500 g/ha)	efficacy (caterpillars killed) (Spodoptera frugiperda; application rate 100 g/ha)	efficacy (caterpillars killed) (Spodoptera frugiperda; application rate 500 g/ha)	nematicidal efficacy (formation of galls) (Meloidogyne incognita)	efficacy (spider mites killed) (Tetranychus urticae)	efficacy (kill in %) (Musca domestica; application rate 20 ppm)
3.37	3.37			O=C(NC1CC1)c1cc(-c2ccc(C(F)(F)F)cc2)cc(NC(=O)C2CC2)n1 [Example I-013]	80%	100%	100%	100%	100%	100%	100%	100%			
3.86	3.71			O=C(NC1CC1)c1cc(-c2ccc(SC(F)(F)F)cc2)cc(NC(=O)C2CC2)n1 [Example I-105]		100%			100%	100%	83%	100%		100%	
	3.33	3.41		CCNC(=O)c1cc(-c2ccc(OC(F)(F)F)cc2)cc(NC(=O)C2CC2)n1 [Example I-118]	100%	100%			100%	100%	100%	100%			
		3.84		CC1(NC(=O)c2cc(-c3ccc(OC(F)(F)F)cc3)cc(NC(=O)C3CC3)n2)CC1 [Example I-128]	100%	100%	100%		100%	100%	100%	100%			
	3.93	3.88		O=C(NC1CSC1)c1cc(-c2ccc(OC(F)(F)F)cc2)cc(NC(=O)C2CC2)n1 [Example I-162]	100%	100%			100%	100%	100%	100%	90%		
	3.26	3.29		COCCNC(=O)c1cc(-c2ccc(OC(F)(F)F)cc2)cc(NC(=O)C2CC2)n1 [Example I-177]									90%		
	3.66	3.76		N#CC1CCC(NC(=O)c2cc(-c3ccc(OC(F)(F)F)cc3)cc(NC(=O)C3CC3)n2)CC1 (stereo not drawn) [Example I-197]	100%	100%	100%	80%	83%	100%	100%	100%			100%
	3.74	3.85		O=C(NC1CC1(F)F)c1cc(-c2ccc(OC(F)(F)F)cc2)cc(NC(=O)C2CC2)n1 (stereo not drawn) [Example I-216]	100%	100%	80%		100%	100%	100%	100%			

More lines, now with the values behind:

Compound	LOGP_HCOOH [1, 4]	LOGP_NEUTRAL [1, 5]	LOGP_HCOOH [1, 6]	LOGP_NEUTRAL ([1]; log P (neutral), HPLC reversed-phase column (C 18))	efficacy (fleas dead or moribund) (Ctenocephalides felis [2])	efficacy (kill in %) (Ctenocephalides felis [3])	efficacy (kill in %) (Lucilia cuprina)	efficacy (kill in %) (Musca domestica; application rate 100 ppm)	efficacy (beetle larvae killed) (Phaedon cochleariae; application rate 100 g/ha)	efficacy (beetle larvae killed) (Phaedon cochleariae; application rate 500 g/ha)	efficacy (caterpillars killed) (Spodoptera frugiperda; application rate 100 g/ha)	efficacy (caterpillars killed) (Spodoptera frugiperda; application rate 500 g/ha)	nematicidal efficacy (formation of galls) (Meloidogyne incognita)	efficacy (spider mites killed) (Tetranychus urticae)	efficacy (kill in %) (Musca domestica; application rate 20 ppm)
N#CCNC(=O)c1cc(-c2ccc(C(F)(F)F)cc2)cc(NC(=O)C2CC2)n1 [Example I-025]	3.05	3.01				98%				100%	100%	100%	100%		
C#CCNC(=O)c1cc(-c2ccc(C(F)(F)F)cc2)cc(NC(=O)C2CC2)n1 [Example I-038]	3.34	3.25							100%	83%		83%	90%		
N#Cc1cccc(CCNC(=O)c2cc(-c3ccc(OC(F)(F)F)cc3)cc(NC(=O)C3CC3)n2)c1 [Example I-091]	4.01	3.88				95%	100%			100%	100%	100%		90%	
COC(=O)C1(NC(=O)c2cc(-c3ccc(OC(F)(F)F)cc3)cc(NC(=O)C3CC3)n2)CC1 [Example I-138]			3.42		100%	100%	100%	100%	100%	100%	100%	100%	90%		
N#Cc1ccc(CNC(=O)c2cc(-c3ccc(C(F)(F)C(F)(F)F)cc3)cc(NC(=O)C3CC3)n2)cc1 [Example I-182]		4.07	4.24			100%	100%		100%	100%	100%	100%		90%	
O=C(NN=Cc1ccc(C(F)(F)F)c(F)c1)c1cc(-c2ccc(OC(F)(F)F)cc2)cc(NC(=O)C2CC2)n1 [Example I-257]	4.72											100%	90%		
O=C(NCc1ccc(N2CCCC2=O)cc1)c1cc(-c2ccc(OC(F)(F)F)cc2)cc(NC(=O)C2CC2)n1 [Example I-259]	3.55			3.58						83%		100%	90%		

Source: patent publication US20190053492A1, “SUBSTITUTED PYRIDINE COMPOUNDS AS PESTICIDES” (Bayer CropScience Aktiengesellschaft, priority 2016, published 2019)
